Values after ≈ are worked out from the molar mass of the structure shown. Positions of bridges follow the written chain, without caps; N, C: chain ends. Non-standard residues stand in square brackets, D forms with d. Residues, ends and D or L forms follow the SMILES beside them. *: point of attachment. Phe(3,4,5-F3) = N[C@@H](Cc1cc(F)c(F)c(F)c1)C(=O)O; Phe(4-CF3) = N[C@@H](Cc1ccc(C(F)(F)F)cc1)C(=O)O; dPhe(F5) = N[C@H](Cc1c(F)c(F)c(F)c(F)c1F)C(=O)O; Phe(4-Br) = N[C@@H](Cc1ccc(Br)cc1)C(=O)O; Phe(4-Cl) = N[C@@H](Cc1ccc(Cl)cc1)C(=O)O; Phe(3-F) = N[C@@H](Cc1cccc(F)c1)C(=O)O; dPhe(4-F) = N[C@H](Cc1ccc(F)cc1)C(=O)O; d(hPhe) = N[C@H](CCc1ccccc1)C(=O)O; Octanoyl = CCCCCCCC(=O)*; Dab = NCC[C@H](N)C(=O)O

Results on nine compounds are retold here after ChEMBL document CHEMBL5537158, “Polymyxins with Potent Antibacterial Activity against Colistin-Resistant Pathogens: Fine-Tuning Hydrophobicity with Unnatural Amino Acids” (J Med Chem, 2024).

Series [1] relates to Escherichia coli. As to the kind of experiment: Antibacterial activity against Escherichia coli ATCC 25922 assessed as bacterial growth inhibition incubated for 20 hrs by broth microdilution method. The format is functional. In general terms: Dilution methods test growth across graded concentrations, often in twofold steps.
The test system of series [2] is Escherichia coli. As to the kind of experiment: Antimicrobial activity against […] Escherichia coli harboring mcr-1 assessed as bacterial growth inhibition incubated for 20 hrs by broth microdilution method. The format is functional.
The test system of series [3] is Pseudomonas aeruginosa. As to the kind of experiment: Antimicrobial activity against colistin resistant Pseudomonas aeruginosa 7197/19 assessed as bacterial growth inhibition incubated for 20 hrs by broth microdilution method. It counts as functional.
Series [4] has as its system Acinetobacter baumannii. As to the kind of experiment: Antimicrobial activity against Acinetobacter baumannii ATCC 19606 assessed as bacterial growth inhibition incubated for 20 hrs by broth microdilution method. It counts as functional.
The subject of series [5] is Acinetobacter baumannii. As to the kind of experiment: Antimicrobial activity against colistin resistant Acinetobacter baumannii ATCC 3658/17 assessed as bacterial growth inhibition incubated for 20 hrs by broth microdilution method. The format is functional.
In series [6] the test system is Pseudomonas aeruginosa. Briefly: Antimicrobial activity against Pseudomonas aeruginosa PAO1 assessed as bacterial growth inhibition incubated for 20 hrs by broth microdilution method. The format is functional.
Series [7] in a line: Hemolytic activity in human RBC at 400 ug/ml after 1 hr. The format is toxicity, cell-based, Erythrocyte. The settings on record: red blood cells (erythrocytes), at 400 µg/mL, read-out: Activity.

As usually defined, the MIC is the lowest concentration found to suppress growth. Take `CCCCCCCC(=O)N[C@@H](CCN)C(=O)N[C@H](C(=O)N[C@@H](CCN)C(=O)N[C@H]1CCNC(=O)[C@H]([C@@H](C)O)NC(=O)[C@H](CCN)NC(=O)[C@H](CCN)NC(=O)[C@H](Cc2cccc(F)c2)NC(=O)[C@@H](CC(C)C)NC(=O)[C@H](CCN)NC1=O)[C@@H](C)O` (Octanoyl-[Dab]T[Dab][Dab][Dab][dL][Phe(3-F)][Dab][Dab]T; lactam 4-C): the MIC worked out at 0.25 µg/mL (≈ 0.207 µM) in series [1], 4 µg/mL (≈ 3.31 µM) in series [2], 1 µg/mL (≈ 0.828 µM) in series [3] and 0.25 µg/mL (≈ 0.207 µM) in series [4].

In the case of `CCCCCCCC(=O)N[C@@H](CCN)C(=O)N[C@H](C(=O)N[C@@H](CCN)C(=O)N[C@H]1CCNC(=O)[C@H]([C@@H](C)O)NC(=O)[C@H](CCN)NC(=O)[C@H](CCN)NC(=O)[C@H](CC(C)C)NC(=O)[C@@H](Cc2ccc(F)cc2)NC(=O)[C@H](CCN)NC1=O)[C@@H](C)O` (Octanoyl-[Dab]T[Dab][Dab][Dab][dPhe(4-F)]L[Dab][Dab]T; lactam 4-C), the MIC in series [1] was 0.03 µg/mL (≈ 0.0248 µM); in series [2], 2 µg/mL (≈ 1.66 µM); in series [4] it was 0.06 µg/mL (≈ 0.0497 µM); in series [5] it was 0.25 µg/mL (≈ 0.207 µM).

Turning to `CCCCCCCC(=O)N[C@@H](CCN)C(=O)N[C@H](C(=O)N[C@@H](CCN)C(=O)N[C@H]1CCNC(=O)[C@H]([C@@H](C)O)NC(=O)[C@H](CCN)NC(=O)[C@H](CCN)NC(=O)[C@H](Cc2ccc(C(F)(F)F)cc2)NC(=O)[C@@H](CC(C)C)NC(=O)[C@H](CCN)NC1=O)[C@@H](C)O` (Octanoyl-[Dab]T[Dab][Dab][Dab][dL][Phe(4-CF3)][Dab][Dab]T; lactam 4-C), the minimal inhibitory concentration (MIC) was 0.25 µg/mL (≈ 0.199 µM) in series [6], less than 0.125 µg/mL in series [4] and 1 µg/mL (≈ 0.795 µM) in series [5].

Consider `CCCCCCCC(=O)N[C@@H](CCN)C(=O)N[C@H](C(=O)N[C@@H](CCN)C(=O)N[C@H]1CCNC(=O)[C@H]([C@@H](C)O)NC(=O)[C@H](CCN)NC(=O)[C@H](CCN)NC(=O)[C@H](Cc2ccc(Br)cc2)NC(=O)[C@@H](CC(C)C)NC(=O)[C@H](CCN)NC1=O)[C@@H](C)O` (Octanoyl-[Dab]T[Dab][Dab][Dab][dL][Phe(4-Br)][Dab][Dab]T; lactam 4-C), for which the MIC in series [6] was 0.25 µg/mL (≈ 0.197 µM); in series [4] it was 0.25 µg/mL (≈ 0.197 µM); in series [5], 1 µg/mL (≈ 0.788 µM).

With `CCCCCCCC(=O)N[C@@H](CCN)C(=O)N[C@H](C(=O)N[C@@H](CCN)C(=O)N[C@H]1CCNC(=O)[C@H]([C@@H](C)O)NC(=O)[C@H](CCN)NC(=O)[C@H](CCN)NC(=O)[C@H](Cc2cc(F)c(F)c(F)c2)NC(=O)[C@@H](CC(C)C)NC(=O)[C@H](CCN)NC1=O)[C@@H](C)O` (Octanoyl-[Dab]T[Dab][Dab][Dab][dL][Phe(3,4,5-F3)][Dab][Dab]T; lactam 4-C), the figures for the MIC in series [6], in series [4] and in series [5] were 0.25 µg/mL (≈ 0.201 µM), less than 0.125 µg/mL and 2 µg/mL (≈ 1.61 µM), respectively.

Turning to `CCCCCCCC(=O)N[C@@H](CCN)C(=O)N[C@H](C(=O)N[C@@H](CCN)C(=O)N[C@H]1CCNC(=O)[C@H]([C@@H](C)O)NC(=O)[C@H](CCN)NC(=O)[C@H](CCN)NC(=O)[C@H](Cc2ccc(Cl)cc2)NC(=O)[C@@H](CC(C)C)NC(=O)[C@H](CCN)NC1=O)[C@@H](C)O` (Octanoyl-[Dab]T[Dab][Dab][Dab][dL][Phe(4-Cl)][Dab][Dab]T; lactam 4-C), the figures for the minimum inhibitory concentration (MIC) in series [6], in series [4] and in series [5] were 0.25 µg/mL (≈ 0.204 µM), 0.125 µg/mL (≈ 0.102 µM) and 1 µg/mL (≈ 0.817 µM), respectively.

Turning to `CCCCCCCC(=O)N[C@@H](CCN)C(=O)N[C@H](C(=O)N[C@@H](CCN)C(=O)N[C@H]1CCNC(=O)[C@H]([C@@H](C)O)NC(=O)[C@H](CCN)NC(=O)[C@H](CCN)NC(=O)[C@H](CC(C)C)NC(=O)[C@@H](Cc2c(F)c(F)c(F)c(F)c2F)NC(=O)[C@H](CCN)NC1=O)[C@@H](C)O` (Octanoyl-[Dab]T[Dab][Dab][Dab][dPhe(F5)]L[Dab][Dab]T; lactam 4-C), the MIC in series [1] was less than 0.125 µg/mL; in series [6], 0.25 µg/mL (≈ 0.195 µM); in series [4] it was less than 0.125 µg/mL; in series [5] it was 0.5 µg/mL (≈ 0.391 µM).

Turning to `CCCCCCCC(=O)N[C@@H](CCN)C(=O)N[C@H](C(=O)N[C@@H](CCN)C(=O)N[C@H]1CCNC(=O)[C@H]([C@@H](C)O)NC(=O)[C@H](CCN)NC(=O)[C@H](CCN)NC(=O)[C@H](CC(C)C)NC(=O)[C@@H](CCc2ccccc2)NC(=O)[C@H](CCN)NC1=O)[C@@H](C)O` (Octanoyl-[Dab]T[Dab][Dab][Dab][d(hPhe)]L[Dab][Dab]T; lactam 4-C), the MIC in series [1] was 0.25 µg/mL (≈ 0.208 µM); in series [6], 0.25 µg/mL (≈ 0.208 µM); in series [5] it was 4 µg/mL (≈ 3.32 µM).

As to `CC(=O)N[C@H](Cc1cccc(F)c1)C(=O)N[C@@H](CCN)C(=O)N[C@H](C(=O)N[C@@H](CCN)C(=O)N[C@H]1CCNC(=O)[C@H]([C@@H](C)O)NC(=O)[C@H](CCN)NC(=O)[C@H](CCN)NC(=O)[C@H](CC(C)C)NC(=O)[C@@H](Cc2ccccc2)NC(=O)[C@@H](CCN)NC1=O)[C@H](C)O`, the MIC in series [1] was 0.25 µg/mL (≈ 0.197 µM); in series [6] it was 0.25 µg/mL (≈ 0.197 µM); in series [4] it was 1 µg/mL (≈ 0.787 µM); in series [5], 16 µg/mL (≈ 12.6 µM). Also, in series [7], the hemolysis at 1 h, 400 ug/ml is less than 10%.
